# Results: patent US20150209379A1, “TREATMENT OF PROSTATE CANCER AND HEMATOLOGIC NEOPLASMS” (THOMAS JEFFERSON UNIVERSITY, priority 2012, published 2015)
# Biological target: T1, Stat5a (Homo sapiens, UniProt P42229)
# T1 sequence (P42229 1-794): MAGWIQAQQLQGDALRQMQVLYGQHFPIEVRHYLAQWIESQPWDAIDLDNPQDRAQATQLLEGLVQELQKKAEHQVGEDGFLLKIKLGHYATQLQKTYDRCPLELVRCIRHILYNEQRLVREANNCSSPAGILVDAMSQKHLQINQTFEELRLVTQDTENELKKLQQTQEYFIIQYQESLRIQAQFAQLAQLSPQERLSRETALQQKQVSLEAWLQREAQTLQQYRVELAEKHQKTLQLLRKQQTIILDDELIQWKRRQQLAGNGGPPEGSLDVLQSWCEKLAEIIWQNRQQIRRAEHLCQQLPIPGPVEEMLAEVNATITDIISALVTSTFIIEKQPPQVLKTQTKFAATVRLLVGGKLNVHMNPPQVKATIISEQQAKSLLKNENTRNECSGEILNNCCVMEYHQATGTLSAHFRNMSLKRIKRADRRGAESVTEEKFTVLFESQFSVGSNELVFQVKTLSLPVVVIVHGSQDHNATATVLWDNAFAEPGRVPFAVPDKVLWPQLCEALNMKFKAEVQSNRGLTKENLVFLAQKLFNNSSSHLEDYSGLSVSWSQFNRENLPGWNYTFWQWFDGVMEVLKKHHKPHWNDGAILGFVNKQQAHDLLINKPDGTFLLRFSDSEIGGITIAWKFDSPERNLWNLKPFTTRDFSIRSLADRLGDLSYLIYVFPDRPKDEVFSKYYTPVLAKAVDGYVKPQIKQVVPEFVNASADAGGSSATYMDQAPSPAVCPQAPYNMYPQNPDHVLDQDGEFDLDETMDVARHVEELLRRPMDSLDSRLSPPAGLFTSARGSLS
# Experiment: Stat5a dimerization (FLAG-/MYC-tagged Stat5a co-immunoprecipitation) in PC-3 cells
# Type: cell-based
# Set-up: expressed in transfected cells; host or cells: PC-3 human prostate cancer cells
# Settings: 2 hours pretreatment, then hPrl 10 nM 30 minutes
# Method: (§1) FLAG-tagged Stat5a and MYC-tagged Stat5a were generated by standard molecular biology cloning techniques. Plasmid pCMV3-FLAG-Stat5a, pCMV3-MYC-Stat5a and pPr1R were co-transfected using FuGENE6 (Roche) into PC-3 cells (2 μg of each plasmid per 1×10^7 cells). The cells were starved for 20 hours, pretreated with test compound for 2 hours, then stimulated with hPrl (10 nM) in RPMI 1640 without serum for 30 minutes. The cell lysates were immunoprecipitated with 25 μl anti-FLAG M2 […] affinity gel (2 μg/ml, Sigma), anti-MYC pAb (1 μg/ml, Upstate) or normal rabbit serum (NRS). The primary antibodies were used in the immunoblottings at the following concentrations: anti-FLAG pAb (1:1000; Stratagene), anti-MYC mAb (1:1000; Sigma), anti-Stat5a/b mAb (1:250) (Transduction Laboratories) detected by horseradish peroxidase-conjugated secondary antibodies. The results are shown in FIG. 3A for Compound 1 and FIG. 3B for Compound 2.
# Lanes 1, 2, 4, 6 and 8 represent cells stimulated with human prolactin (Prl) for 30 minutes which induces dimerization of Stat5. Two hours prior to Prl-stimulation, the cells had been treated with DMSO (lanes 1-4), the control compound C5 (lanes 7 and 8) and either Compound 1 (lanes 5 and 6 in FIG. 3A) or Compound 2 (lanes 5 and 6 in FIG. 3B). […] It should be noted the drug effect in this study was not due to cell apoptosis induction, as the treatment time was only 2 hours. Treatment of at least 48 hours is required for the compound to induce prostate cancer cell apoptosis.
# as §1, with “and pPrlR” for “and pPr1R”, “hours, pre-treated” for “hours, pretreated”, “with NBPP” for “with test compound”, “2 h,” for “2 hours,”, “antibodies.” for “antibodies. The results are shown in FIG. 3A for Compound 1 and FIG. 3B for Compound 2.”
# Lanes 1, 2, 4, 6 and 8 represent cells stimulated with human prolactin (Prl) for 30 minutes which induces dimerization of Stat5. Two hours prior to Prl-stimulation, the cells had been treated with DMSO (lanes 1-4), the control compound C5 (lanes 5 and 6) or NBPP (lanes 7 and 8) to test whether the Stat5a/b-inhibitor compound, NBPP, would be able to inhibit dimerization of StatS. […] It should be noted the drug effect in this study was not due to cell apoptosis induction, as the treatment time was only 2 hours. Treatment of at least 48 hours is required for the compound to induce prostate cancer cell apoptosis.
# FLAG-tagged Stat5a and MYC-tagged Stat5a were generated by standard molecular biology cloning techniques.as follows. […] The primary antibodies were used in the immunoblottings at the following concentrations: anti-FLAG pAb (1:1000; Stratagene), anti-MYC mAb (1:1000; Sigma), anti-Stat5a/b mAb (1:250) (Transduction Laboratories) detected by horseradish peroxidase-conjugated secondary antibodies. […]
row,Structure (SMILES),effect on Stat5a dimerization
1,"OC[C@H]1O[C@@H](n2cnc3c(N4CCc5ccccc5C4)ncnc32)[C@H](O)[C@@H]1O [Compound 1, (2R,3R,4S,5R)-2-(6-(3,4-Dihydroisoquinolin-2(1H)-yl)-9H-purin-9-yl)-5-(hydroxymethyl)tetrahydrofuran-3,4-diol]",effectively inhibited Stat5a dimerization
2,"OC[C@H]1O[C@@H](n2cnc3c(NNc4ccccc4)ncnc32)[C@H](O)[C@@H]1O [Compound 2, (2R,3S,4R,5R)-2-(hydroxymethyl)-5-(6-(2-phenylhydrazinyl)-9H-purin-9-yl)tetrahydrofuran-3,4-diol]",effectively inhibited Stat5a dimerization
3,"OC[C@H]1O[C@@H](n2cnc3c(NCc4ccccc4)ncnc32)[C@H](O)[C@@H]1O [Compound N6BA, N^6-benzyladenosine]",effectively inhibited Stat5a dimerization
4,"OC[C@H]1O[C@@H](n2ccc3c(NCc4ccccc4)ncnc32)[C@H](O)[C@@H]1O [NBPP, N-(phenylmethyl)-7-β-D-ribofuranosyl-7H-pyrrolo[2,3-d]pyrimidin-4-amine]",effectively inhibited Stat5a dimerization
